Here are results for three molecules from ChEMBL document CHEMBL1136465, “Phenolics with PPAR-gamma ligand-binding activity obtained from licorice (Glycyrrhiza uralensis roots) and ameliorative effects of glycyrin on genetically diabetic KK-A(y) mice” (2003).

Common to all, as to assay type: functional
Experiment [1] is filed under the species Mus musculus. Briefly: Blood glucose level of the diabetic KK-Ay mice on day 0 was measured.
The species entered for experiment [2] is Mus musculus. Briefly: Blood glucose level of the diabetic KK-Ay mice on day 4 was measured.
Experiment [3] is filed under the species Mus musculus. As to the kind of experiment: Body weight of the fasted diabetic KK-Ay mice on day 10 was measured.
Experiment [4] is filed under the species Mus musculus. As to the kind of experiment: Body weight of the non-fasted diabetic KK-Ay mice on day 0 was measured.
The species named for experiment [5] is Mus musculus. As to the kind of experiment: Body weight of the non-fasted diabetic KK-Ay mice on day 4 was measured.
For experiment [6], the species on record is Mus musculus. As to the kind of experiment: Body weight of the non-fasted diabetic KK-Ay mice on day 7 was measured.
The species named for experiment [7] is Mus musculus. Briefly: Average food intake of the diabetic KK-Ay mice was measured from total intake amount/days/number of mice.
The species named for experiment [8] is Mus musculus. As to the kind of experiment: Average sample intake of the diabetic KK-Ay mice was measured as average food intake/average body weight of mice.

`COc1cc2oc(=O)c(-c3ccc(O)cc3O)cc2c(OC)c1CC=C(C)C` [GLYCYRIN]: the Blood glucose in the experiment filed under Mus musculus [1] came out at 474 mg/dL; in the experiment listed under Mus musculus [2], 278 mg/dL. Besides, the Body weight in the experiment listed under Mus musculus [3] was 48.1 g; in the experiment filed under Mus musculus [4], 54.1 g; in the experiment filed under Mus musculus [5], 50.4 g; in the experiment listed under Mus musculus [6], 51.9 g. The same molecule displayed an Average food intake in the experiment filed under Mus musculus [7] of 5.34 g mouse-1 day-1. The Average sample intake in the experiment filed under Mus musculus [8] is 102 mg/kg/day.
With `COc1c(CC=C(C)C)c(O)cc2oc(=O)c3c4ccc(O)cc4oc3c12` [GLYCYROL], the Blood glucose in the experiment listed under Mus musculus [1] was 427 mg/dL; in the experiment filed under Mus musculus [2] it was 421 mg/dL. Further, the Body weight is reported as 46.8 g in the experiment listed under Mus musculus [3], 52.6 g in the experiment listed under Mus musculus [4], 49.1 g in the experiment filed under Mus musculus [5] and 50.3 g in the experiment filed under Mus musculus [6]. For the same molecule, the Average food intake in the experiment listed under Mus musculus [7] turned out to be 5.47 g mouse-1 day-1. In the experiment listed under Mus musculus [8], this molecule returned an Average sample intake of 108 mg/kg/day.
In the case of `CCc1ccc(CCOc2ccc(CC3SC(=O)NC3=O)cc2)nc1` (centres undefined) [PIOGLITAZONE], the Blood glucose in the experiment listed under Mus musculus [1] turned out to be 486 mg/dL; in the experiment filed under Mus musculus [2], 191 mg/dL. The Body weight in the experiment filed under Mus musculus [3] turned out to be 52.5 g; in the experiment listed under Mus musculus [4], 55.1 g; in the experiment listed under Mus musculus [5], 53.6 g; in the experiment listed under Mus musculus [6], 55.8 g. The molecule also had an Average food intake in the experiment filed under Mus musculus [7] of 6.34 g mouse-1 day-1. Besides, the Average sample intake in the experiment listed under Mus musculus [8] was found to be 23 mg/kg/day.
